{"source": "paper PMC4897788", "about": "“Design, biological evaluation and 3D QSAR studies of novel dioxin-containing pyrazoline derivatives with thiourea skeleton as selective HER-2 inhibitors” (Scientific Reports, 2016)", "key": {"[1]": {"system": "MCF-7 human breast cancer cell line", "assay": "Anti-proliferation assay (MTT), MCF-7", "assay_type": "cell-based", "conditions": "MCF7, 24 h", "experimental": "(§1) MCF-7 human breast cancer cells was cultured in DMEM/10% fetal bovine serum, in 5% CO2 water saturated atmosphere at 37 °C. MDA-MB-453 human breast cancer cells was cultured in L-15 medium in 100% air at 37 °C. Cell suspensions (10000/mL) were prepared and 100 μL/well dispensed into 96-well plates (Costar) giving 1000 cells/well. The plates were returned to the incubator for 24 h to allow the cells to reattach. These compounds were initially prepared at 20 mM in DMSO. Aliquots (200 μL) were diluted into 20 mL culture medium giving 200 μM, and 10 serial dilutions of 3× prepared. Aliquots (100 μL) of each dilution were added to the wells, giving doses ranging from 100 μM to 0.005 μM. After a further incubated at 37 °C for 24 h in a humidified atmosphere with 5% CO2, the cell viability was assessed by the conventional 3-(4,5-dimethylthiazol-2-yl)-2,5-diphenyltetrazolium bromide (MTT) reduction assay and carried out strictly according to the manufacturer instructions (Sigma). The absorbance at 590 nm was recorded using LX300 Epson Diagnostic micro-plate reader. Then GI50 was calculated using SPSS 13.0 software."}, "[2]": {"biological_target": "T1, HER-3 (Homo sapiens, UniProt P21860)", "T1 construct": "HER-3 cytoplasmic domain (HER-3-CD, amino acids 665–1339); His6 (N); made in house", "T1 sequence (P21860 665-1339)": "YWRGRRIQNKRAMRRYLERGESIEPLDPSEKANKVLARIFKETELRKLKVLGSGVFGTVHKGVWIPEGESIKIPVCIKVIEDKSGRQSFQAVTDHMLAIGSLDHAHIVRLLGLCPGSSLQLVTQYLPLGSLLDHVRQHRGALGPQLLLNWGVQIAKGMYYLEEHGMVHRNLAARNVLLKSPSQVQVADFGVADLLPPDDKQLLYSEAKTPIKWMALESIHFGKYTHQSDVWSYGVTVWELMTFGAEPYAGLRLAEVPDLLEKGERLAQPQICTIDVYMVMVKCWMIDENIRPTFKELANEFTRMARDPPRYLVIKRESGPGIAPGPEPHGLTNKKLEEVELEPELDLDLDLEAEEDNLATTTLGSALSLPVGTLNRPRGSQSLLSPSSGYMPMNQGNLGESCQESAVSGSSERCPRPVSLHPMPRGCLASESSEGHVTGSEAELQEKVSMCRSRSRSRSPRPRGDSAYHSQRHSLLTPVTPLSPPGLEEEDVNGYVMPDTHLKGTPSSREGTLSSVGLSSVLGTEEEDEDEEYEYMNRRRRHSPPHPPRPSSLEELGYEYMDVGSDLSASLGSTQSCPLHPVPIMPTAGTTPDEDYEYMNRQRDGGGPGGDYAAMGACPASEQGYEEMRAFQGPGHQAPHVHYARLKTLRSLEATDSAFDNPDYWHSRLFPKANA", "assay": "HER-3 inhibitory assay", "assay_type": "biochemical", "experimental": "A sequence that encodes (His)6 was located at the 5′ upstream to the HER-2 and EGFR sequences. Sf-9 cells were infected for 3 days for protein expression. Sf-9 cell pellets were solubilized at 0 °C in a buffer at pH 7.4 containing 50 mM HEPES, 10 mM NaCl, 1% Triton, 10 μM ammonium molybdate, 100 μM sodium vanadate, 10 μg/mL aprotinin, 10 μg/mL leupeptin, 10 μg/mL pepstatin, and 16 μg/mL benzamidine, HCl for 20 min followed by 20 min centrifugation. Crude extract supernatant was passed through an equilibrated Ni–NTA superflow packed column and washed with 10 mM and then 100 mM imidazole to remove nonspecifically bound material. Histidine-tagged proteins were eluted with 250 and 500 mM imidazole and dialyzed against 50 mM NaCl, 20 mM HEPES, 10% glycerol and 1 μg/mL each of aprotinin, leupeptin, and pepstatin for 2 h. The entire purification procedure was performed at 4 °C or on ice.\nA 1.8 Kb cDNA encoded for human HER-3 cytoplasmic domain (HER-3-CD, amino acids 665–1339) was applied to perform the experiment using the same method as EGFR/HER-2."}, "[3]": {"system": "MDA-MB-453 human breast cancer cell line", "assay": "Anti-proliferation assay (MTT), MDA-MB-453", "assay_type": "cell-based", "conditions": "24 h", "experimental": "as §1"}, "[4]": {"biological_target": "HER-2 (Homo sapiens, UniProt P04626)", "sequence (P04626 676-1245)": "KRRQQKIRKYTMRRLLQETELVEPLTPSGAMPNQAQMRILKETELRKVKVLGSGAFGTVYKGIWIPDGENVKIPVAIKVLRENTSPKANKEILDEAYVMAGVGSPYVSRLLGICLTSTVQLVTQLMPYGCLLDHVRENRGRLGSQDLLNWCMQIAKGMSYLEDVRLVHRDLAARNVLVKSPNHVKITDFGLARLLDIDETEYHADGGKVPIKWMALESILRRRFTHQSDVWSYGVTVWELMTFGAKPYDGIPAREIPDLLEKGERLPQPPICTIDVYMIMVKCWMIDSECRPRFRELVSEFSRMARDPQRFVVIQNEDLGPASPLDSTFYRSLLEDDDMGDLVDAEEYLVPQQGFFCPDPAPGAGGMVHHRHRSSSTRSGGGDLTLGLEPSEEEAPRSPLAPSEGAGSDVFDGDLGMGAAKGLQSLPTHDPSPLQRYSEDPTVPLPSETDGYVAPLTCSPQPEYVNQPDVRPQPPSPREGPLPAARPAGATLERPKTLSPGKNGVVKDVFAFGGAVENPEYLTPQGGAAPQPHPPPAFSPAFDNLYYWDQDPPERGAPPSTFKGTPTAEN", "assay": "HER-2 autophosphorylation kinase assay (DELFIA/time-resolved fluorometry)", "quoted_text": "(§2) Both EGFR and HER-2 kinase assays were set up to assess the level of autophosphorylation based on DELFIA/Time-Resolved Fluorometry. […] Then, 10 μL of 5× buffer (containing 20 mM HEPES, 2 mM MnCl2, 100 μM Na3VO4, and 1 mM DTT) and 20 μL of 0.1 mM ATP-50 mM MgCl2 was added for 1 h. Positive and negative controls were included in each plate by incubation of enzyme with or without ATP-MgCl2. At the end of incubation, liquid was aspirated and plates were washed three times with wash buffer. A 75 μL (400 ng) sample of europium-labeled anti-phosphotyrosine antibody was added to each well for another 1 h of incubation. […] The IC50 was obtained from curves of percentage inhibition with eight concentrations of compound. As the contaminants in the enzyme preparation are fairly low, the majority of the signal detected by the anti-phosphotyrosine antibody is from EGFR or HER-2. The experiment was performed for three independent times and in triplicate each time."}, "[5]": {"biological_target": "T2, FAK (Homo sapiens, UniProt Q05397)", "T2 construct": "human-recombinant full-length FAK", "T2 sequence (Q05397 whole entry)": "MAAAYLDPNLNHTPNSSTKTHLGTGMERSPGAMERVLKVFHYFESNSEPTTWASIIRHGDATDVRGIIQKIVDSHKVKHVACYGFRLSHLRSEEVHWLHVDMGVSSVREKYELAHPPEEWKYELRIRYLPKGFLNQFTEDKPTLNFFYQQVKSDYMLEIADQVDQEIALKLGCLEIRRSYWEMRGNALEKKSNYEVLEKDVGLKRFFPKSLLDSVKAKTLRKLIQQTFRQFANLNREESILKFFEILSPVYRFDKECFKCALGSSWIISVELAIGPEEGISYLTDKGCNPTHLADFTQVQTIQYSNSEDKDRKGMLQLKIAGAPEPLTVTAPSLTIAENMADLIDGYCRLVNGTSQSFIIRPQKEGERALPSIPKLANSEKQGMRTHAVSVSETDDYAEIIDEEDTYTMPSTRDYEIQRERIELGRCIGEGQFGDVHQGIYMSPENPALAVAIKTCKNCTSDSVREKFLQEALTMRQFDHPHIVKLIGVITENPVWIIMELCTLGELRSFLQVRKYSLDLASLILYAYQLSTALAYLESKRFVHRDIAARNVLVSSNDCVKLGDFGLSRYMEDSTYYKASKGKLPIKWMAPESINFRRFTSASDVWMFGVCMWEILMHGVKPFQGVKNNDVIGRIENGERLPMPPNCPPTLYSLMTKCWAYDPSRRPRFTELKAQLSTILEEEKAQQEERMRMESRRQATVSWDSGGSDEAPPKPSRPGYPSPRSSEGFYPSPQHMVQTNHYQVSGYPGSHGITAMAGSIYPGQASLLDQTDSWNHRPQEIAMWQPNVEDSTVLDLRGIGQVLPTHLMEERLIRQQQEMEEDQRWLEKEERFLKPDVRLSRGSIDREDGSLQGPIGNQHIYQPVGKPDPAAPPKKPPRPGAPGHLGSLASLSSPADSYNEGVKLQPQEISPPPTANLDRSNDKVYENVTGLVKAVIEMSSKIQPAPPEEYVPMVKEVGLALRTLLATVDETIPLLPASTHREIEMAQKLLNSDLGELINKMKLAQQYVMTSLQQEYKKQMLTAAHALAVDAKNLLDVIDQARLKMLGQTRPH", "assay": "FAK inhibitory assay (Kinase-Glo)", "assay_type": "biochemical", "experimental": "Selected compounds were tested against FAK. In a typical study, human-recombinant full-length FAK was incubated in kinase buffer containing ATP and the substrate for 4 h at room temperature with or without the presence of the corresponding coumpounds. The final concentration of drug as 100, 30, 10, 3 μg/mL. The remaining ATP in solution was then quantified utilizing the Kinase-Glo-luminescence kit (Promega)."}, "[6]": {"biological_target": "EGFR (Homo sapiens, UniProt P00533)", "sequence (P00533 669-1210)": "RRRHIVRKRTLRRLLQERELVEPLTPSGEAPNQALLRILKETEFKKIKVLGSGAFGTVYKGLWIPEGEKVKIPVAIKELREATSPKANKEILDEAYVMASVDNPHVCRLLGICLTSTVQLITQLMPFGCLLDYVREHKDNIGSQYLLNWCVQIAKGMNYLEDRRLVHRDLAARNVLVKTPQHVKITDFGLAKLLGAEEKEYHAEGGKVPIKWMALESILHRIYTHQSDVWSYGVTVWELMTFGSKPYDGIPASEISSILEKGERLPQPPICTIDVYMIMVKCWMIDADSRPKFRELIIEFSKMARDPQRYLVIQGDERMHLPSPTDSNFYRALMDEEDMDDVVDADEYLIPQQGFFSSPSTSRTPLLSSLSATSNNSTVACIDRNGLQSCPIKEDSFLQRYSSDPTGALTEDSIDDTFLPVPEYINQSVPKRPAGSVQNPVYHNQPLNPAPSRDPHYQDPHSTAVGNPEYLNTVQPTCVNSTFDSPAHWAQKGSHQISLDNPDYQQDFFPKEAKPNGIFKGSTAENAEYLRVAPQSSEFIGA", "assay": "EGFR autophosphorylation kinase assay (DELFIA/time-resolved fluorometry)", "quoted_text": "as §2"}}, "data": [{"smiles": "COc1ccc(C2CC(c3ccc4c(c3)OCCO4)=NN2C(N)=S)cc1OC", "note": "(stereo not drawn) [Compound C20, 3-(2,3-dihydrobenzo[b][1,4]dioxin-6-yl)-5-(3,4-dimethoxyphenyl)-4,5-dihydro-1H-pyrazole-1-carbothioamide]", "values": [{"measurement": "GI50", "setting": "[1]", "result": "11.9 ± 1.06", "unit": "µM"}, {"measurement": "IC50", "setting": "[2]", "result": "5.2 ± 0.46", "unit": "µM"}, {"measurement": "GI50", "setting": "[3]", "result": "0.15 ± 0.01", "unit": "µM"}, {"measurement": "IC50", "setting": "[4]", "result": "0.03 ± 0.002", "unit": "µM"}, {"measurement": "IC50", "setting": "[5]", "result": "56.2 ± 5.48", "unit": "µM"}, {"measurement": "IC50", "setting": "[6]", "result": "28.6 ± 2.52", "unit": "µM"}]}]}
